Experiment: partition coefficient octanol/water at pH 7.4 (logD(7.4))
Assay type: physicochemical
Excerpt: If an active ingredient is introduced into an octanol/water mixture, it partitions between the two phases at a given pH in accordance with its lipophilicity/hydrophilicity. The ratio of the partitioning of the active ingredient between the octanol and water phases is known as the partition coefficient. Absorption of active ingredients requires that they both dissolve in aqueous media and also pass through the corresponding membranes. For the latter, a certain lipophilicity of the active ingredient is necessary. The requisite lipophilicity arises from the lipophilicity of the respective membrane. Thus, absorption in the intestine requires a logD value of >−1.50 and passage through the blood-brain barrier requires a logD value of >0.5 (Lipinski C. A: Adv. Drug Del. Rev. 23 (1997), 3-25). A favourable logD value is an essential prerequisite for absorption of an active ingredient.
logD values given above and below are partition coefficients of the compounds in question octanol/water at a pH of 7.4 (logD(7.4)).

Q: Which logD does the source give for CS(=O)(=O)NC(=O)CC(NC(=O)CNC(=O)CCCCNc1ccccn1)c1ccc(-c2ccccc2)cc1 (stereo not drawn) [EMD 387 803] here?
A: -0.38

Q: Which logD does the source give for O=C(CNC(=O)NCCCNc1ccccn1)NC(Cc1nnn[nH]1)c1ccc(-c2ccccc2)cc1 (stereo not drawn) [EMD 387 890, N-[1-biphenyl-4-yl-2-(1H-tetrazol-5-yl)ethyl]-2-{3-[3-(pyridin-2-ylamino)propyl]ureido}acetamide] here?
A: 6.19

Q: Which logD does the source give for O=C(CCCCNc1ccccn1)NCC(=O)NC(Cc1nnn[nH]1)c1ccc(-c2ccccc2)cc1 (stereo not drawn) [EMD 389 889, N-[1-biphenyl-4-yl-2-(1H-tetrazol-5-yl)ethyl]-2-[5-(pyridin-2-ylamino)pentanoylamino]-acetamide] here?
A: 6.52

— patent US20040157902A1, “Integrin antagonists” (priority 2001, published 2004)
